Assay results from the NIST ThermoML archive (doi:10.1016/j.jct.2006.05.008).

Assay: molar heat capacity at constant pressure; wn = mass fraction of the nth substance listed
Conditions: Small (less than 1 g) adiabatic calorimetry

CCCCn1cc[n+](C)c1.[Br-] [1-butyl-3-methylimidazolium bromide] + O
Crystal
Conditions	molar heat capacity at constant pressure [J/K/mol]
218.45 K, w2 = 0.00482	179.81
218.58 K, w2 = 0.0495	158.93
218.67 K, w2 = 0.00482	179.82
219.16 K, w2 = 0.0051	180.49
219.16 K, w2 = 0.0169	170.74
219.92 K, w2 = 0.0169	174.79
220.75 K, w2 = 0.00482	181.03
221.08 K, w2 = 0.00482	181.37
221.13 K, w2 = 0.0495	162.83
221.26 K, w2 = 0.0169	172.67
221.69 K, w2 = 0.0051	182.19
221.98 K, w2 = 0.0169	175.21
222.83 K, w2 = 0.00482	182.24
223.35 K, w2 = 0.0169	174.92
223.65 K, w2 = 0.0495	166.27
224.06 K, w2 = 0.0169	176.93
224.22 K, w2 = 0.0051	184.17
224.86 K, w2 = 0.00482	183.19
225.43 K, w2 = 0.0169	177.21
226.12 K, w2 = 0.0169	179.17
226.16 K, w2 = 0.0495	169.5
226.71 K, w2 = 0.00482	184.71
226.73 K, w2 = 0.0051	185.92
227.52 K, w2 = 0.0169	179.5
228.19 K, w2 = 0.0169	181.4
228.65 K, w2 = 0.0495	172.65
228.79 K, w2 = 0.00482	185.77
229.25 K, w2 = 0.0051	187.95
229.6 K, w2 = 0.0169	181.84
229.71 K, w2 = 0.0051	187.47
230.25 K, w2 = 0.0169	183.78
230.87 K, w2 = 0.00482	187.3
231.12 K, w2 = 0.0495	175.4
231.45 K, w2 = 0.0051	188.82
231.69 K, w2 = 0.0169	184.4
231.75 K, w2 = 0.0051	189.69
232.32 K, w2 = 0.0169	185.93
232.95 K, w2 = 0.00482	188.74
233 K, w2 = 0.0051	190.22
233.57 K, w2 = 0.0495	178.39
233.77 K, w2 = 0.0169	186.45
234.38 K, w2 = 0.0169	187.94
234.56 K, w2 = 0.0051	191.21
235.03 K, w2 = 0.00482	190.17
235.85 K, w2 = 0.0169	188.93
236.01 K, w2 = 0.0495	181.58
236.12 K, w2 = 0.0051	192.22
236.45 K, w2 = 0.0169	189.99
237.1 K, w2 = 0.00482	191.7
237.67 K, w2 = 0.0051	193.48
237.94 K, w2 = 0.0169	190.98
238.43 K, w2 = 0.0495	184.7
238.52 K, w2 = 0.0169	191.98
239.18 K, w2 = 0.00482	193.21
239.22 K, w2 = 0.0051	194.65
240.02 K, w2 = 0.0169	193.19
240.19 K, w2 = 0.00482	193.43
240.58 K, w2 = 0.0169	194.1
240.74 K, w2 = 0.0051	195.27
240.77 K, w2 = 0.0051	195.7
240.84 K, w2 = 0.0495	187.48
241.25 K, w2 = 0.00482	195.08
241.57 K, w2 = 0.00482	194.88
242.11 K, w2 = 0.0169	195.39
242.23 K, w2 = 0.0051	196.6
242.33 K, w2 = 0.0051	196.86
242.65 K, w2 = 0.0169	196.25
243.11 K, w2 = 0.00482	195.57
243.23 K, w2 = 0.0495	190.7
243.33 K, w2 = 0.00482	196.58
243.57 K, w2 = 0.0051	197.62
243.88 K, w2 = 0.0051	198.03
244.2 K, w2 = 0.0169	197.53
244.66 K, w2 = 0.00482	197.15
244.72 K, w2 = 0.0169	198.26
244.91 K, w2 = 0.0051	198.42
245.41 K, w2 = 0.00482	198.24
245.43 K, w2 = 0.0051	199.16
245.6 K, w2 = 0.0495	193.88
246.12 K, w2 = 0.00482	197.87
246.21 K, w2 = 0.00482	198.68
246.25 K, w2 = 0.0051	199.47
246.28 K, w2 = 0.0169	199.77
246.78 K, w2 = 0.0169	200.42
246.98 K, w2 = 0.0051	200.29
247.48 K, w2 = 0.00482	199.98
247.59 K, w2 = 0.0051	200.49
247.77 K, w2 = 0.00482	200.2
247.97 K, w2 = 0.0495	197.01
248.37 K, w2 = 0.0169	201.97
248.53 K, w2 = 0.0051	201.44
248.85 K, w2 = 0.0169	202.5
248.93 K, w2 = 0.0051	201.61
249.33 K, w2 = 0.00482	201.33
249.56 K, w2 = 0.00482	201.61
250.07 K, w2 = 0.0051	202.63
250.26 K, w2 = 0.0051	202.66
250.31 K, w2 = 0.0495	200.17
250.45 K, w2 = 0.0169	204.14
250.89 K, w2 = 0.00482	202.59
250.91 K, w2 = 0.0169	204.77
251.6 K, w2 = 0.0051	203.88
251.64 K, w2 = 0.00482	203.37
252.15 K, w2 = 0.0051	204.56
252.45 K, w2 = 0.00482	203.62
252.53 K, w2 = 0.0169	206.36
252.64 K, w2 = 0.0495	203.4
252.93 K, w2 = 0.0051	205.05
252.97 K, w2 = 0.0169	206.96
253.72 K, w2 = 0.00482	205.38
253.96 K, w2 = 0.00482	204.5
254 K, w2 = 0.00482	205.09
254.27 K, w2 = 0.0051	206.08
254.62 K, w2 = 0.0169	208.6
254.74 K, w2 = 0.0051	206.57
254.95 K, w2 = 0.0495	206.71
255.04 K, w2 = 0.0169	209.12
255.56 K, w2 = 0.00482	206.28
255.6 K, w2 = 0.0051	207.19
255.8 K, w2 = 0.00482	206.96
255.99 K, w2 = 0.00482	206.25
256.7 K, w2 = 0.0169	211
256.94 K, w2 = 0.0051	208.23

101 kPa, Liquid
Conditions	molar heat capacity at constant pressure [J/K/mol]
220.21 K, w2 = 0.0495	192.42
221.78 K, w2 = 0.00482	273.75
222.3 K, w2 = 0.0495	192.93
223.87 K, w2 = 0.00482	274.35
224.39 K, w2 = 0.0495	193.35
225.97 K, w2 = 0.00482	274.97
226.48 K, w2 = 0.0495	193.78
228.05 K, w2 = 0.00482	275.41
228.57 K, w2 = 0.0495	194.3
230.14 K, w2 = 0.00482	275.97
230.66 K, w2 = 0.0495	194.89
232.23 K, w2 = 0.00482	276.47
232.75 K, w2 = 0.0495	195.6
234.32 K, w2 = 0.00482	276.93
236.41 K, w2 = 0.00482	277.36
238.51 K, w2 = 0.00482	278.01
240.59 K, w2 = 0.00482	278.63
242.68 K, w2 = 0.00482	279.3
244.77 K, w2 = 0.00482	280.02
246.87 K, w2 = 0.00482	280.54
248.96 K, w2 = 0.00482	281.17
256.19 K, w2 = 0.0495	201.27
